Experimental data published in patent US20070254930A1, “Oral Preparation Having Improved Bioavailability” (DONG WHA PHARM. IND. CO., LTD., priority 2004, published 2007).

How the values were obtained:
[1] = pH-dependent water solubility; format: physicochemical; details: pH about pH 5 or more
[2] = Gelation experiment: viscosity of aqueous solutions; format: physicochemical; details: for Viscosity: Brookfield DV-II+, 10° C. ± 0.3° C., spindle S 51
Protocol: The following test was carried out to evaluate the degree of gelation depending on the concentration of 2 methanesulfonic acid salt of the compound of Chemical Formula 1 according to the present invention.
200 mg of 2 methanesulfonic acid salt of the compound of Chemical Formula 1 was dissolved in 10 mL of water (20 mg/mL). The solution was diluted with water to give 20, 10, 5, and 2.5 mg/mL. Viscosity of these diluted solutions was measured according to the following test conditions described in Table 1, and also the results for the test are shown in Table 1.

Compound | solubility in aqueous condition (in words) [1] | Viscosity ([2]; 2.5 mg/ml in water) [cP] | Viscosity ([2]; 5 mg/ml in water) [cP] | Viscosity ([2]; 10 mg/ml in water) [cP] | Viscosity ([2]; 20 mg/ml in water) [cP] | gelation property in aqueous solution (in words) ([2]; aqueous solution)
Cc1nc(-c2ccc(OCCCCCOc3ccc(C(=N)NO)cc3)cc2)c(C(C)C)s1 [compound of Chemical Formula 1, N-hydroxy-4-{5-[4-(5-isopropyl-2-methyl-1,3-thiazol-4-yl)phenoxy]pentoxy}-benzamidine] | practically insoluble | – | – | – | – | –
CS(=O)(=O)O.CS(=O)(=O)O.Cc1nc(-c2ccc(OCCCCCOc3ccc(C(=N)NO)cc3)cc2)c(C(C)C)s1 [N-hydroxy-4-{5-[4-(5-isopropyl-2-methyl-1,3-thiazol-4-yl)phenoxy]pentoxy}-benzamidine 2 methanesulfonic acid salt] | – | 6.34 | 11.9 | 20.0 | 78.9 | high gelation property
